{
  "source": "patent US12390423B2",
  "about": "(priority 2019, dated 2025)",
  "key": {"[1]": {"test_system": "C2C12 myotubes", "experiment": "Fatty acid oxidation ([1-14C]-palmitate) in C2C12 myotubes", "assay_type": "cell-based, mouse", "conditions": "25 μM AvoB, 0.5 mM palmitate-BSA/1 mM L-carnitine, 24 h", "protocol": "FAO in cell lines was determined using established methods. […] [1-^14C]-palmitate was prepared and applied to cells as follows: purchased stock supplied in ethanol (PerkinElmer, MA, USA) was dried in vacuo and then re-suspended in a solution containing unlabeled carrier in BSA to yield a mixture of 7% BSA [w/v], 2.5 mM palmitate with [1-^14C]-palmitate at a final concentration of 10 μCi/mL. Following a 16 hour incubation at 37° C., the solution containing radiolabeled palmitate was diluted with respective serum free cell culture media (low glucose RPMI media for INS-1 (832/13) cells and low glucose DMEM for C2C12 myotubes) containing 1 mM L-carnitine to a final concentration of 0.3% BSA, 100 μM palmitate, and 0.4 μCi/mL [1-^14C]-palmitate. Following incubation of treated cells with [1-^14C]-palmitate, 400 μL of well media was transferred to acidification vials containing perchloric acid and capped with CO2 filter traps impregnated with 1M NaOH. […] The CO2 trap was transferred to scintillation vials containing 4 mL of scintillation fluid and complete FAO was quantified using a Tri-Carb 2910 TR liquid scintillation analyzer (PerkinElmer). The amount of radioactivity in the media was also determined after pelleting cells and debris (14,000×g, 10 min); this quantified acid soluble metabolites (ASMs), an indirect measure of incomplete FAO."}, "[2]": {"test_system": "INS-1 (832/13) cells", "experiment": "High resolution respirometry in INS-1 (832/13) cells", "assay_type": "cell-based, rat", "protocol": "Cells treated with test compounds for 24 h were trypsinized, counted, and resuspended in phosphate buffer saline (PBS). High-resolution O2 consumption measurements were conducted in 2 ml of respiration medium (PBS, pH 7.5, stir speed 750 rpm) using the Oroboros Oxygraph-2k (Oroboros Instruments, Corp., Innsbruck, Austria) set to 37° C. with a gain of 2 in both chambers. Briefly, after the injection of 5 million treated INS-1 (832/13) cells or C2C12 myotubes per chamber, basal respiration was measured once steady-state respiratory flux was obtained; this represents coupled respiration fueled by available substrates from the incubation with test compounds. Uncoupled respiration was then measured following addition of the ATP synthase inhibitor oligomycin (0.25 μM). This was followed by measuring maximal respiratory rate by stepwise titration of carbonyl cyanide p-trifluoromethoxy phenyl hydrazone (FCCP; within 0.1-0.25 μM) in the presence of 1 mmol/L pyruvate. Finally, respiration was inhibited by addition of rotenone (0.5 μM; complex I inhibitor) to obtain extra-mitochondrial residual oxygen consumption. Data was recorded with DatLab software (Oroboros Instruments, Innsbruck, Austria), oxygen consumption at each step of the protocol was normalized to vehicle control and illustrated in histograms. For all HRR protocols, cell viability was determined after trypsinization and also after end of HRR runs via trypan blue cell staining and counting using a hemocytometer. No significant differences in cell viability between control and treated cells were observed.\nAdditionally, to indirectly assess metabolic flexibility, cells were treated the same way as described, collected and subjected to a 15 min treatment of 10 mM D-glucose before being washed and injected into the respirometer; these experiments were done to assess if cells incubated in low glucose/high fat conditions for 24 h can easily switch to glucose utilization upon acute incubation with D-glucose."}, "[3]": {"test_system": "C2C12 myotubes", "experiment": "Mitochondrial ROS (MitoSOX) and membrane potential (JC-1) in C2C12 myotubes", "assay_type": "cell-based, mouse", "conditions": "25 μM AvoB, 0.5 mM palmitate, 24 h", "protocol": "For all ROS studies, INS-1 (832/13) cells and C2C12 myotubes were treated with or without palmitate and FAO inhibitors for 24 h in low glucose cell culture media as described for the FAO assay. After treatment, cells were trypsinized and re-suspended in PBS containing 5 μM of the fluorescent dye MitoSOX® (Molecular Probes, Invitrogen) and allowed to incubate for 5-15 minutes in a humidified atmosphere containing 5% CO2 at 37° C. Cells were then washed in PBS, placed in a 96 well plate and fluorescence was measured by flow cytometry. ROS was quantified by normalizing the mean fluorescence values of live gated cells to vehicle control. Mitochondrial membrane potential (MMP) in INS-1 (832/13) and C2C12 myotubes was measured using the cationic fluorescent dye JC-1 (Molecular Probes). […] JC-1 fluoresces green in the cytosol where it exists as a monomer, after entering the mitochondria JC-1 monomers form J aggregates and fluoresce red, thus the red/green fluorescence ratio is used to determine MMP. […] Cells were then washed in PBS, placed in a 96 well plate and fluorescence was measured by flow cytometry. MMP was quantified by normalizing the mean fluorescence values of live gated cells to vehicle control. […] Cells were treated, washed and collected as described and incubated with 0.35 μM NAO and green fluorescence was measured using flow cytometry. […]"}},
  "data": [
    {"substance": "avocatin B [AvoB]", "values": [
      {"measurement": "Complete FAO ([1-14C]-palmitate oxidation to CO2)", "setting": "[1]", "result": "inhibited complete FAO"},
      {"measurement": "Incomplete FAO (ASM levels)", "setting": "[1]", "result": "did not increase incomplete FAO"},
      {"measurement": "Respiration after 10 mM glucose challenge (HRR, metabolic flexibility)", "setting": "[2]; 25 μM AvoB, 0.25 mM palmitate 24 h, then 10 mM glucose 15 min, vs palmitate-only", "result": "increased basal and maximal respiration compared to the palmitate-only control"},
      {"measurement": "Palmitate supported respiration (OCR, HRR)", "setting": "[2]; 25 μM AvoB, 0.25 mM palmitate-BSA/1 mM L-carnitine, 24 h", "result": "inhibited palmitate supported basal and maximal-uncoupled respiration"},
      {"measurement": "Concentration imparting FAO inhibition relative to etomoxir", "setting": "[2]; AvoB 25 μM vs etomoxir 100 μM", "result": "four-fold lower than etomoxir"},
      {"measurement": "Mitochondrial membrane potential (MMP, JC-1)", "setting": "[3]", "result": "lowers palmitate induced increases"},
      {"measurement": "Mitochondrial superoxide levels (MitoSOX Red)", "setting": "[3]", "result": "lowers palmitate induced increases in mitochondrial superoxide levels"}
    ]}
  ]
}
